Measured values taken from patent publication US20240148900A1, “IMMUNOSTIMULATORY CYCLIC DI-NUCLEOTIDE DELIVERY SYSTEM COMPOSITIONS AND METHOD OF USE THEREOF” (VIRGINIA COMMONWEALTH UNIVERSITY, priority 2021, published 2024).

Tests used:
RAW264.7 macrophages = assay: Cell uptake of FluoCDG by flow cytometry; type: cell-based, murine; conditions: FluoCDG 0.5 μg/mL; free CDG over 2 h, formulations 0.5 h post incubation
Description: CDG release from STING-NVs. First, STING-NVs were dispersed in 1 mL of 1×PBS at different pH and agitated at 200 rpm. Then the mixture was ultra-filtrated at each hour point. The filtrate was taken for CDG detection, and the same volume of fresh buffer was added back to the residual mixture. The amount of released CDG in the filtrate was determined by measuring the absorption at 254 nm using a UV-Vis spectrometer. Lipo-CDG Synthesis. DOTAP, cholesterol, and DSPE-PEG(2000) were purchased from Avanti Polar Lipids. Lipids were mixed at molar ratios of 1:1:0.2 DOTAP:cholesterol:DSPE-PEG(2000). Lipid mixtures were dried under a nitrogen stream in glass test tubes. The resulting lipid films were placed in a desiccation system overnight. […] The CDG content of the liposomes was determined by measuring the absorbance peak of the liposomes at 254 nm, corresponding to the maximum absorbance of CDG, subtracting the lipid contribution to absorbance at this wavelength. […] Secreted IFN-α was quantified with the LumiKine Xpress mIFN-α enzyme-linked immunosorbent assay kit (InvivoGen). Secreted IL-6 and IL-12 were quantified with the Mouse IL-6 Quantikine™ ELISA Kit (R&D Systems). […] Cells were analyzed for fluorescein signal (from fluorescein-modified CDG) on the CytoFLEX LX (Beckman Coulter) flow cytometer.

[1] = Stability of CDG in 10% FBS-supplemented cell culture medium; type: in vitro ADME; conditions: 7 days in cell culture medium with 10% serum, 37° C., absorption at 254 nm
Text: FIG. 1A-H. Characterization of STING-NVs. (a) UV-vis absorbance spectra of PEG-b-PLA NPs, 5c-i-motif DNA, and 5c-NPs. […] Lane legends: 1: 25 bp DNA ladder; 2: 9C-i-motif; 3: 3C-NPs; 4: 5C-NPs; 5: 7C-NPs; 6: 9C-NPs. (c) DLS graphs showing the hydrodynamic diameters of 5C-NPs (79±34 nm, PDI 0.157) and STING-NVs (81±32 nm, PDI 0.131). (d) A TEM image of STING-NVs. (e) Zeta potential of blank NPs, CDG-loaded NPs, and Lipo-CDG. STING-NVs: CDG-loaded 5C-NPs. (f) Stability of free CDG and CDG loaded in STING-NVs over 7-day incubation in 10% FBS-supplemented cell culture medium (37° C.). A254nm: 254 nm absorption from CDG; A560nm: 560 nm absorption from medium as an internal reference. (g, h) MST traces (g) and fitting curve (h) of the kinetic interaction between 5C-NPs and CDG at pH 7.4. Data represent mean±standard deviation (SD) (n=3).
The ability of STING-NVs to promote the biostability of CDG is presumably due to the steric hindrance of i-motif-NPs that prevent the access of nucleases. Using HPLC and microscale thermophoresis (MST), we further studied the binding of CDG with 5C-i-motifs, which is the basis for CDG loading into i-motif-modified NPs. In HPLC, relative to free CDG and 5C-i-motif, the delayed elution time of physically mixed CDG and 5C-i-motif indicated the complexation of CDG and 5C-i-motif (FIG. 10). […]

intact CDG [1]: 2.3%
SMILES: Nc1nc2c(ncn2[C@@H]2O[C@@H]3COP(=O)(O)O[C@H]4[C@@H](O)[C@H](n5cnc6c(=O)[nH]c(N)nc65)O[C@@H]4COP(=O)(O)O[C@H]3[C@H]2O)c(=O)[nH]1 [free CDG, cyclic dimeric guanosine monophosphate]
FluoCDG fluorescence signal enhancement (RAW264.7 macrophages): only slight FluoCDG signal enhancement
